Columns and labels:
[1] = for viscosity / mass density: 101.33 kPa, Liquid; for viscosity: Cone and plate viscometry; for mass density: Vibrating tube method; for surface tension liquid-gas: Pendant drop shape
[2] = refractive index (Na D-line) (dimensionless); settings: 101.33 kPa, Liquid, Standard Abbe refractometry

CCCC[N+](C)(CCCC)CCCC.O=S(=O)([N-]S(=O)(=O)C(F)(F)F)C(F)(F)F [tributylmethylammonium bis((trifluoromethyl)sulfonyl)imide]
Settings	mass density, [1] [kg/m3]	refractive index, [2]	surface tension liquid-gas, [1] [mN/m]	viscosity, [1] [mPa·s]
283.15 K	1276	1.4308	–	2049.8
288.15 K	1271.7	1.42933	–	1264
293.15 K	1267.3	1.42787	–	819.2
293.3 K	–	–	30.8	–
298.15 K	1262.8	1.42643	–	538.9
298.2 K	–	–	30.6	–
303.15 K	1258.4	1.42491	–	369.3
303.2 K	–	–	30.2	–
308.15 K	1254.1	1.42338	–	260.4
313.15 K	1249.9	1.42194	–	189.5
313.2 K	–	–	29.7	–
318.15 K	1245.8	1.42047	–	139.6
323.15 K	1241.7	1.41902	–	105.6
323.2 K	–	–	29.1	–
328.15 K	1237.6	1.41758	–	81.5
333.15 K	1233.6	1.41613	–	64.1
338.15 K	1229.5	1.41468	–	51.1
343.15 K	1225.5	1.41324	–	41.4
348.15 K	1221.5	1.4118	–	34
353.15 K	1217.5	1.4104	–	28.3

CC[S+](CC)CC.O=S(=O)([N-]S(=O)(=O)C(F)(F)F)C(F)(F)F [triethylsulfonium bis((trifluoromethyl)sulfonyl)imide]
Settings	mass density, [1] [kg/m3]	refractive index, [2]	surface tension liquid-gas, [1] [mN/m]	viscosity, [1] [mPa·s]
283.15 K	1477	1.43056	–	64.4
288.15 K	1472	1.42906	–	51.1
293.15 K	1467.1	1.42765	–	41.1
293.3 K	–	–	35.5	–
298.15 K	1462.1	1.42632	–	33.9
298.2 K	–	–	35.2	–
303.15 K	1457.3	1.42472	–	28.2
303.2 K	–	–	35	–
308.15 K	1452.4	1.42325	–	23.8
313.1 K	–	–	34.4	–
313.15 K	1447.6	1.42185	–	20.3
318.15 K	1442.8	1.42044	–	17.5
323 K	–	–	34	–
323.15 K	1438.1	1.41906	–	15.2
328.15 K	1433.4	1.41767	–	13.4
333.1 K	–	–	33.4	–
333.15 K	1428.7	1.41629	–	11.8
338.15 K	1424	1.4149	–	10.5
343.1 K	–	–	32.9	–
343.15 K	1419.4	1.41353	–	9.4
348.15 K	1414.8	1.41215	–	8.5
353.15 K	1410.2	1.41077	–	7.7

CC[S+](C)CC.O=S(=O)([N-]S(=O)(=O)C(F)(F)F)C(F)(F)F [diethylmethylsulfonium bis[(trifluoromethyl)sulfonyl]imide]
Settings	mass density, [1] [kg/m3]	refractive index, [2]	surface tension liquid-gas, [1] [mN/m]	viscosity, [1] [mPa·s]
283.15 K	1517.3	1.42745	–	78.3
288.15 K	1512.2	1.42597	–	62.1
293.15 K	1507.2	1.42452	–	49.9
293.2 K	–	–	35.7	–
298.15 K	1502.3	1.42325	–	41.1
298.2 K	–	–	35.5	–
303.15 K	1497.3	1.42168	–	34.1
303.2 K	–	–	35.3	–
308.15 K	1492.4	1.42026	–	28.7
313.1 K	–	–	34.8	–
313.15 K	1487.6	1.41886	–	24.4
318.15 K	1482.8	1.41744	–	21
323.1 K	–	–	34.4	–
323.15 K	1478	1.41606	–	18.2
328.15 K	1473.2	1.41468	–	15.9
333.1 K	–	–	33.9	–
333.15 K	1468.5	1.41331	–	14
338.15 K	1463.8	1.41195	–	12.5
343.1 K	–	–	33.4	–
343.15 K	1459.1	1.41058	–	11.1
348.15 K	1454.5	1.40925	–	10
353.15 K	1449.8	1.40793	–	9

CCCC[N+](C)(C)C.O=S(=O)([N-]S(=O)(=O)C(F)(F)F)C(F)(F)F [butyltrimethylammonium bis(trifluoromethylsulfonyl)imide]
Settings	mass density, [1] [kg/m3]	refractive index, [2]	surface tension liquid-gas, [1] [mN/m]	viscosity, [1] [mPa·s]
283.15 K	1407.8	1.4122	–	254.2
288.15 K	1403.2	1.41083	–	184.6
293.15 K	1398.7	1.40945	–	137.7
293.2 K	–	–	33.4	–
298.15 K	1394.2	1.40818	–	105.2
298.2 K	–	–	33.2	–
303.15 K	1389.8	1.40676	–	82
303.2 K	–	–	33	–
308.15 K	1385.4	1.40538	–	65.2
313.1 K	–	–	32.5	–
313.15 K	1381	1.40405	–	52.7
318.15 K	1376.6	1.40273	–	43.2
323.1 K	–	–	32	–
323.15 K	1372.3	1.40142	–	35.9
328.15 K	1368	1.40006	–	30.2
333.1 K	–	–	31.5	–
333.15 K	1363.7	1.39877	–	25.7
338.15 K	1359.5	1.39747	–	22
343.15 K	1355.2	1.39616	–	19.1
348.15 K	1351	1.39486	–	16.7
353.15 K	1346.8	1.39358	–	14.7

— the NIST ThermoML archive (doi:10.1016/j.fluid.2014.08.005)
